Data taken from BigSolDB 2.1.

COc1cc(C(=O)O)cc(OC)c1O
solubility (mole fraction)
Details	283.15 K	288.15 K	293.15 K	298.15 K	303.15 K	308.15 K	313.15 K	318.15 K	323.15 K
in ethanol	0.0115	0.0125	0.0145	0.0169	0.0188	0.0217	0.0251	0.0279	0.0316
in ethyl acetate	0.0007	0.00084	0.001	0.00125	0.00149	0.0018	0.00221	0.0026	0.00323
in ethylene glycol	0.00812	0.00951	0.0113	0.0124	0.0146	0.017	0.0203	0.0235	0.0269
in isopropanol	0.00401	0.00455	0.00545	0.00627	0.00752	0.00853	0.00971	0.0115	0.0131
in methanol	0.0137	0.015	0.0173	0.019	0.0209	0.0238	0.0271	0.0298	0.0331
in n-butanol	0.0032	0.00375	0.00441	0.00518	0.00624	0.00735	0.00832	0.0098	0.0116
in n-hexanol	0.00241	0.00281	0.0033	0.0042	0.0048	0.0058	0.00702	0.00852	0.0101
in sec-butanol	0.00188	0.00223	0.0029	0.00357	0.00432	0.00503	0.00604	0.00737	0.00921
